Measured values from ChEMBL document CHEMBL1201862, “PubChem BioAssay data set” (2004).
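Five compound concentrations were applied to cells in 96-well plates for 48 hours; endpoints were derived by simple linear interpolation of the resulting dose-response curve. GI50 marks 50% less growth.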 Active and inactive are the calls of the source. No stated cut-off is given here; in the data, active = GI50 up to about 1.1 µM and inactive = higher.

Columns and labels:
Test in all cases: growth of human tumour cells (NCI), 48 h
[1] = test system: HL-60
[2] = test system: MOLT-4
[3] = test system: SR
[4] = test system: A549
[5] = test system: CAKI-1
[6] = test system: ACHN
[7] = test system: 786-0
[8] = test system: SK-MEL-28
[9] = test system: TK-10
[10] = test system: HCC 2998
[11] = test system: NCI-H460
[12] = test system: SK-MEL-5
[13] = test system: UACC-257
[14] = test system: OVCAR-5
[15] = test system: K562
[16] = test system: HOP-62

Measured: GI50

CSCSCC(CO)NC(=O)/C=C/c1c(C)nc(O)nc1O (stereo not drawn)
inactive: [1] > 100 µM | [2] 96.6 µM | [3] 56.4 µM | [4] > 100 µM | [5] 56.6 µM | [6] > 100 µM | [7] > 100 µM | [8] > 100 µM | [9] > 100 µM | [10] > 100 µM | [11] > 100 µM | [12] > 100 µM | [13] > 100 µM | [14] > 100 µM | [15] 39.7 µM

CC(Oc1cc2oc(=O)cc(-c3ccccc3)c2cc1Cl)C(=O)O (stereo not drawn)
inactive: [16] > 100 µM | [1] > 100 µM | [2] > 100 µM | [3] > 100 µM | [4] > 100 µM | [5] > 100 µM | [6] > 100 µM | [7] > 100 µM | [8] > 100 µM | [9] > 100 µM | [10] > 100 µM | [11] > 100 µM | [12] > 100 µM | [13] > 100 µM | [15] > 100 µM

CCCCCCCC(=O)NCC(O)CNC(=O)CCCCCCC
inactive: [16] > 100 µM | [1] > 100 µM | [2] > 100 µM | [3] > 100 µM | [4] > 100 µM | [5] > 100 µM | [7] > 100 µM | [9] > 100 µM | [10] > 100 µM | [11] > 100 µM | [12] > 100 µM | [13] > 100 µM | [14] > 100 µM | [15] > 100 µM

Nc1nc(N)c(N=O)c(Nc2ccc(Br)cc2)n1
inactive: [16] 14.6 µM | [1] > 100 µM | [3] > 100 µM | [4] 41.9 µM | [5] 29.4 µM | [6] 6.58 µM | [7] 28.7 µM | [8] 16.6 µM | [9] 29.1 µM | [10] 78.9 µM | [11] 26.5 µM | [13] 15.6 µM | [14] 31.2 µM | [15] > 100 µM

COc1ccc(NS(=O)(=O)c2ccc(/N=C3\C=C(Nc4ccc(S(=O)(=O)Nc5ccc(OC)nn5)cc4)C(=O)c4ccccc43)cc2)nn1
inactive: [1] > 100 µM | [2] 87.9 µM | [3] 83.6 µM | [4] 17.9 µM | [5] 22 µM | [6] 19.1 µM | [7] 17.8 µM | [8] 17.5 µM | [9] 21.9 µM | [10] 19.6 µM | [11] 17.7 µM | [12] 20.4 µM | [13] 16.9 µM | [14] 19.1 µM | [15] 61.1 µM
